# Assay results taken from patent US9758538B2, “Pyrimidine derivatives” (PFIZER INC., priority 2015, dated 2017).
# Biological target: truncated PI3Kα (p110α/iSH2 p85α), PI3KA_Act (Homo sapiens (Human), UniProt P42336)
# Assay: PI3Kα biochemical kinase assay, fluorescence polarization format (PI3KA_Act)
# Details: 0.5 nM p110α/iSH2 p85, 1 mM ATP, 30 μM PIP2, 15-min preincubation; Morrison equation fit; read-out: PI3KA_Act Ki
# How it was run: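 Enzyme: His-tagged p110α/p85α niSH2 complex from Sf21 baculovirus expression, IMAC-purified, tag cleaved, then SEC. Reactions ran 30 min at room temperature, stopped with 10 mM EDTA pH 8 (final), and were read by fluorescence polarization.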
# truncated PI3Kα (p110α/iSH2 p85α), PI3KA_Act, sequence (P42336 whole entry, the tested form may be a part): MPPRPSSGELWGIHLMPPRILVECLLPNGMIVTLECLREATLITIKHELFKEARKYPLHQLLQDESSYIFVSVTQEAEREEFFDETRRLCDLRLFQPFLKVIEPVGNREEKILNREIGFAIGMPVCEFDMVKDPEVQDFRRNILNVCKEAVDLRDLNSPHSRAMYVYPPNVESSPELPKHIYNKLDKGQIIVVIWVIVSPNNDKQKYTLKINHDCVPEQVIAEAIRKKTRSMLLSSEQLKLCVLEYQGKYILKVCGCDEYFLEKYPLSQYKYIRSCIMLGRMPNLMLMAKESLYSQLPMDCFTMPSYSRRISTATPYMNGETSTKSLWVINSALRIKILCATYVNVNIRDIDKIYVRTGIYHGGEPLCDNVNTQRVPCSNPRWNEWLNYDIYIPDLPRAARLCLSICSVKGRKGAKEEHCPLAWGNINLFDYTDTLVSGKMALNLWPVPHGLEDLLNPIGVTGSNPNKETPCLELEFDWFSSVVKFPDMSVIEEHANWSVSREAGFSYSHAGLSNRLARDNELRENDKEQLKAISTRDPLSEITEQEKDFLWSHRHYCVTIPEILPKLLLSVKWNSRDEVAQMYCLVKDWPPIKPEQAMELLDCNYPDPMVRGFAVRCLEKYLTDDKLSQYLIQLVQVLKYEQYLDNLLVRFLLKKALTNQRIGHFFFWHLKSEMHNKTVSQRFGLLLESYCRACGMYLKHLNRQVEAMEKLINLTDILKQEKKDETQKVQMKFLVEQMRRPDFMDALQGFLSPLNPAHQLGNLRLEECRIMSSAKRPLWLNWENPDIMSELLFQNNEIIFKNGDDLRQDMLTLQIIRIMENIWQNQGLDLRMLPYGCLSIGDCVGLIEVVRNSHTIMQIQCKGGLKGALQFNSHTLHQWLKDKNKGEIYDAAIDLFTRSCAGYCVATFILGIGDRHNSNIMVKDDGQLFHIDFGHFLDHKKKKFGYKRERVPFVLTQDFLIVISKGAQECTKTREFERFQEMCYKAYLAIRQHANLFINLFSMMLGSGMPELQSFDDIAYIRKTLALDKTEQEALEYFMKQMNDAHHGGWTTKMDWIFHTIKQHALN
row,SMILES,Ki
1,"Cc1ncc(-c2cc(N[C@@]3(CO)CCN(C(=O)OC(C)(C)C)C3)nc(N3CCOCC3)n2)cn1 [Example 126, tert-butyl (3S)-3-(hydroxymethyl)-3-{[2′-methyl-2-(morpholin-4-yl)-4,5′-bipyrimidin-6-yl]amino}pyrrolidine-1-carboxylate]",1.92 nM
2,"CC(=O)N1CC[C@](CO)(Nc2cc(-c3cnc(N)nc3)nc(N3CCOCC3)n2)C1 [Example 32, 1-[(3S)-3-{[2′-amino-2-(morpholin-4-yl)-4,5′-bipyrimidin-6-yl]amino}-3-(hydroxymethyl)pyrrolidin-1-yl]ethanone]",0.771 nM
3,"Nc1ncc(-c2cc(N[C@@]3(CO)CCN(C(=O)OC4CC4)C3)nc(N3CCOCC3)n2)cn1 [Example 93, cyclopropyl (3S)-3-{[2′-amino-2-(morpholin-4-yl)-4,5′-bipyrimidin-6-yl]amino}-3-(hydroxymethyl)pyrrolidine-1-carboxylate]",< 0.018 nM
4,"COC(=O)N1CCC[C@@](CO)(Nc2nc(N3CCOCC3)nc(-c3cnc(N)nc3)c2F)C1 [Example 155, methyl (3R)-3-{[2′-amino-5-fluoro-2-(morpholin-4-yl)-4,5′-bipyrimidin-6-yl]amino}-3-(hydroxymethyl)piperidine-1-carboxylate]",3.07 nM
5,"Cc1ncc(-c2cc(N[C@@]3(CO)CCN(C(=O)OC(C)(C)C)C3)nc(N3CCOCC3)n2)cc1C#N [Example 125, tert-butyl (3S)-3-{[6-(5-cyano-6-methylpyridin-3-yl)-2-(morpholin-4-yl)pyrimidin-4-yl]amino}-3-(hydroxymethyl)pyrrolidine-1-carboxylate]",118 nM
6,"Nc1ncc(-c2cc(N[C@@]3(CO)CCN(C(=O)c4ccccn4)C3)nc(N3CCOCC3)n2)cn1 [Example 63, [(3S)-3-{[2′-amino-2-(morpholin-4-yl)-4,5′-bipyrimidin-6-yl]amino}-3-(hydroxymethyl)pyrrolidin-1-yl](pyridin-2-yl)methanone]",0.062 nM
7,"Nc1ncc(-c2cc(N[C@@]3(CO)CCCN(C(=O)OCC(F)F)C3)nc(N3CCOCC3)n2)cn1 [Example 141, 2,2-difluoroethyl (3S)-3-{[2′-amino-2-(morpholin-4-yl)-4,5′-bipyrimidin-6-yl]amino}-3-(hydroxymethyl)piperidine-1-carboxylate]",0.043 nM
8,"Nc1ncc(-c2cc(N[C@@]3(CO)CCN(C(=O)[C@@H]4CC4(F)F)C3)nc(N3CCOCC3)n2)cn1 [Example 46, [(3S)-3-{[2′-amino-2-(morpholin-4-yl)-4,5′-bipyrimidin-6-yl]amino}-3-(hydroxymethyl)pyrrolidin-1-yl][(1S)-2,2-difluorocyclopropyl]methanone]",< 0.018 nM
9,"CCC(=O)N1CCC[C@@](CO)(Nc2nc(N3CCOCC3)nc(-c3cnc(N)nc3)c2F)C1 [Example 147, 1-[(3R)-3-{[2′-amino-5-fluoro-2-(morpholin-4-yl)-4,5′-bipyrimidin-6-yl]amino}-3-(hydroxymethyl)piperidin-1-yl]propan-1-one]",1.9 nM
10,"CC(C)OC(=O)N1CC[C@](CO)(Nc2nc(-c3cnc(N)nc3)nc(N3CCOCC3)n2)C1 [Example 83, propan-2-yl (3S)-3-{[4-(2-aminopyrimidin-5-yl)-6-(morpholin-4-yl)-1,3,5-triazin-2-yl]amino}-3-(hydroxymethyl)pyrrolidine-1-carboxylate]",0.215 nM
11,"CC(C)OC(=O)N1CC[C@](CO)(Nc2nc(N3CCOCC3)nc(-c3cnc(N)nc3)c2F)C1 [Example 70, propan-2-yl (3S)-3-{[2′-amino-5-fluoro-2-(morpholin-4-yl)-4,5′-bipyrimidin-6-yl]amino}-3-(hydroxymethyl)pyrrolidine-1-carboxylate]",0.031 nM
12,"CC(C)(C)OC(=O)N1CC(CO)(Nc2cc(-c3cnc(N)nc3)nc(N3CCOCC3)n2)C1 [Example 41, tert-butyl 3-{[2′-amino-2-(morpholin-4-yl)-4,5′-bipyrimidin-6-yl]amino}-3-(hydroxymethyl)azetidine-1-carboxylate]",0.128 nM
13,"CN(c1cc(-c2cnc(N)nc2)nc(N2CCOCC2)n1)C1(CO)CCN(C(=O)OC(C)(C)C)C1 (single isomer, unassigned) [Example 27, tert-butyl 3-{[2′-amino-2-(morpholin-4-yl)-4,5′-bipyrimidin-6-yl](methyl)amino}-3-(hydroxymethyl)pyrrolidine-1-carboxylate]",0.717 nM
14,"CCCOC(=O)N1CC[C@](CO)(Nc2cc(-c3cnc(N)nc3)nc(N3CCOCC3)n2)C1 [Example 77, propyl (3S)-3-{[2′-amino-2-(morpholin-4-yl)-4,5′-bipyrimidin-6-yl]amino}-3-(hydroxymethyl)pyrrolidine-1-carboxylate]",< 0.018 nM
15,"Nc1ncc(-c2cc(N[C@@]3(CO)CCN(C(=O)OCC(F)F)C3)nc(N3CCOCC3)n2)cn1 [Example 79, 2,2-difluoroethyl (3S)-3-{[2′-amino-2-(morpholin-4-yl)-4,5′-bipyrimidin-6-yl]amino}-3-(hydroxymethyl)pyrrolidine-1-carboxylate]",0.021 nM
16,"Nc1ncc(-c2cc(N[C@@]3(CO)CCN(C4CCNC4=O)C3)nc(N3CCOCC3)n2)cn1 (stereo partly drawn) [Example 80, (3S)-3-{[2′-amino-2-(morpholin-4-yl)-4,5′-bipyrimidin-6-yl]amino}-3-(hydroxymethyl)-1,3′-bipyrrolidin-2′-one]",1.94 nM
17,"Nc1ncc(-c2cc(N[C@@]3(CO)CCN(C(=O)C4CC4)C3)nc(N3CCOCC3)n2)cn1 [Example 92, [(3S)-3-{[2′-amino-2-(morpholin-4-yl)-4,5′-bipyrimidin-6-yl]amino}-3-(hydroxymethyl)pyrrolidin-1-yl](cyclopropyl)methanone]",< 0.018 nM
18,"CC(C)S(=O)(=O)N1CC[C@](CO)(Nc2cc(-c3cnc(N)nc3)nc(N3CCOCC3)n2)C1 [Example 52, [(3S)-3-{[2′-amino-2-(morpholin-4-yl)-4,5′-bipyrimidin-6-yl]amino}-1-(propan-2-ylsulfonyl)pyrrolidin-3-yl]methanol]",0.084 nM
19,"Nc1ncc(-c2nc(N[C@@]3(CO)CCN(C(=O)OCC(F)F)C3)nc(N3CCOCC3)n2)cn1 [Example 99, 2,2-difluoroethyl (3S)-3-{[4-(2-aminopyrimidin-5-yl)-6-(morpholin-4-yl)-1,3,5-triazin-2-yl]amino}-3-(hydroxymethyl)pyrrolidine-1-carboxylate]",0.027 nM
20,"Nc1ncc(-c2cc(N[C@@]3(CO)CCNC3)nc(N3CCOCC3)n2)cn1 [Example 29, [(3S)-3-{[2′-amino-2-(morpholin-4-yl)-4,5′-bipyrimidin-6-yl]amino}pyrrolidin-3-yl]methanol]",5.88 nM
21,"Nc1ncc(-c2cc(NC3(CF)CCN(C(=O)OCc4ccccc4)C3)nc(N3CCOCC3)n2)cn1 (stereo not drawn) [Example 105, benzyl 3-{[2′-amino-2-(morpholin-4-yl)-4,5′-bipyrimidin-6-yl]amino}-3-(fluoromethyl)pyrrolidine-1-carboxylate]",0.489 nM
22,"CCC1(Nc2cc(-c3cnc(N)nc3)nc(N3CCOCC3)n2)CCN(C(=O)OC(C)(C)C)C1 (stereo not drawn) [Example 28, tert-butyl 3-{[2′-amino-2-(morpholin-4-yl)-4,5′-bipyrimidin-6-yl]amino}-3-ethylpyrrolidine-1-carboxylate]",0.201 nM
23,"CC(C)(C)OC(=O)N1CC[C@](C)(Nc2cc(-c3cnc(N)nc3)nc(N3CCOCC3)n2)C1 [Example 40, tert-butyl (3S)-3-{[2′-amino-2-(morpholin-4-yl)-4,5′-bipyrimidin-6-yl]amino}-3-methylpyrrolidine-1-carboxylate]",0.095 nM
24,"C[C@H]1COCCN1c1nc(N[C@@]2(CO)CCN(C(=O)OC3CC3)C2)c(F)c(-c2cnc(N)nc2)n1 [Example 117, cyclopropyl (3S)-3-({2′-amino-5-fluoro-2-[(3S)-3-methylmorpholin-4-yl]-4,5′-bipyrimidin-6-yl}amino)-3-(hydroxymethyl)pyrrolidine-1-carboxylate]",< 0.018 nM
25,"Nc1ncc(-c2cc(N[C@@]3(CO)CCN(C(=O)[C@H](O)c4ccccc4)C3)nc(N3CCOCC3)n2)cn1 [Example 55, (2R)-1-[(3S)-3-{[2′-amino-2-(morpholin-4-yl)-4,5′-bipyrimidin-6-yl]amino}-3-(hydroxymethyl)pyrrolidin-1-yl]-2-hydroxy-2-phenylethanone]",0.371 nM
26,"COC(=O)N1CC[C@](CO)(Nc2nc(-c3cnc(N)nc3)nc(N3CCOCC3)n2)C1 [Example 11, methyl (3S)-3-{[4-(2-aminopyrimidin-5-yl)-6-(morpholin-4-yl)-1,3,5-triazin-2-yl]amino}-3-(hydroxymethyl)pyrrolidine-1-carboxylate]",0.103 nM
27,"Nc1ncc(-c2nc(N3CCOCC3)nc(N[C@@]3(CO)CCN(C(=O)NCC(F)F)C3)c2F)cn1 [Example 132, (3S)-3-{[2′-amino-5-fluoro-2-(morpholin-4-yl)-4,5′-bipyrimidin-6-yl]amino}-N-(2,2-difluoroethyl)-3-(hydroxymethyl)pyrrolidine-1-carboxamide]",0.097 nM
28,"Cn1cc(C(=O)N2CC[C@](CO)(Nc3cc(-c4cnc(N)nc4)nc(N4CCOCC4)n3)C2)cn1 [Example 81, [(3S)-3-{[2′-amino-2-(morpholin-4-yl)-4,5′-bipyrimidin-6-yl]amino}-3-(hydroxymethyl)pyrrolidin-1-yl](1-methyl-1H-pyrazol-4-yl)methanone]",0.31 nM
29,"CC(=O)N1CC[C@@](CO)(Nc2cc(-c3cnc(N)nc3)nc(N3CCOCC3)n2)C1 [Example 31, 1-[(3R)-3-{[2′-amino-2-(morpholin-4-yl)-4,5′-bipyrimidin-6-yl]amino}-3-(hydroxymethyl)pyrrolidin-1-yl]ethanone]",2.13 nM
30,"CCOC(=O)N1CC[C@](COC(C)=O)(Nc2cc(-c3cnc(N)nc3)nc(N3CCOCC3)n2)C1 [Example 113, ethyl (3S)-3-[(acetyloxy)methyl]-3-{[2′-amino-2-(morpholin-4-yl)-4,5′-bipyrimidin-6-yl]amino}pyrrolidine-1-carboxylate]",3.23 nM
